Laboratory results reported in patent publication US20190119729A1, “METHOD OF DETECTING AND TREATING P. ACNES AND KIT THEREOF” (priority 2016, published 2019).
≈ marks a conversion by molar mass, not a printed value.

What was measured:
P. acnes = details: in those receiving prolonged antibiotic therapy with the drug (Leyden et al 1983); cited from earlier work
P. acnes isolates = test: Antimicrobial susceptibility patterns of P. acnes isolates against different antibiotics (Table 1); type: cell-based; details: Cutibacterium acnes
Description: Table 1 below depicts the antimicrobial susceptibility patterns of P. acnes isolates against different antibiotics: […]

[1] = test system: P. acnes clinical isolates (clindamycin resistant); test: Antimicrobial susceptibility of clindamycin resistant P. acnes clinical isolates against various antibiotics (Table 2); type: cell-based; details: for MIC: Cutibacterium acnes; for susceptibility of the strains as indicated by MIC values: all the clindamycin, erythromycin resistant strains of Table 2
Description: Various clinical isolates are obtained from patients carrying Clindamycin Resistant P. acnes and their antimicrobial susceptibility to fluoroquinolone antibiotics is studied vis-à-vis susceptibility to Clindamycin and Erythromycin.

[2] = isolate V21A1, phylotype IA1, type IV, 23S rRNA A2059G
[3] = isolate V21A2, phylotype IB, type I, 23S rRNA A2058G
[4] = isolate V21A3, phylotype IB, type I, 23S rRNA A2058G
[5] = isolate V21A4, phylotype IB, type I, 23S rRNA A2058G
[6] = isolate V21A5, phylotype IA1, type IV, 23S rRNA A2059G
[7] = isolate V21A6, phylotype IA1, type IV, 23S rRNA A2059G
[8] = isolate V21A7, phylotype IA1, type IV, 23S rRNA A2059G
[9] = isolate V21A8, phylotype IA1, type IV, 23S rRNA A2059G
[10] = isolate V21A9, phylotype IB, type I, 23S rRNA A2058G
[11] = isolate V21A10, phylotype IB, type I, 23S rRNA A2058G
[12] = isolate V21B2, phylotype IB, type I, 23S rRNA A2058G
[13] = isolate V21B4, phylotype IB, type I, 23S rRNA A2058G
[14] = isolate V21B6, phylotype IB, type I, 23S rRNA A2058G
[15] = isolate V21B7, phylotype IB, type I, 23S rRNA A2058G
[16] = isolate V21B8, phylotype IB, type I, 23S rRNA A2058G

SMILES | MIC (P. acnes isolates; [2]) [µg/mL] | MIC (P. acnes isolates; [3]) [µg/mL] | MIC (P. acnes isolates; [4]) [µg/mL] | MIC (P. acnes isolates; [5]) [µg/mL] | MIC (P. acnes isolates; [6]) [µg/mL] | MIC ([1]; P. acnes strain V21A-1) [µg/mL] | MIC ([1]; P. acnes strain V21A-2) [µg/mL] | MIC ([1]; P. acnes strain V21A-5) [µg/mL] | MIC ([1]; P. acnes strain V21A-6) [µg/mL] | MIC ([1]; P. acnes strain V21A-7) [µg/mL] | MIC ([1]; P. acnes strain V21A-8) [µg/mL] | MIC ([1]; P. acnes strain V21A-9) [µg/mL] | MIC ([1]; P. acnes strain V21B-1) [µg/mL] | MIC ([1]; P. acnes strain V21B-2) [µg/mL] | MIC ([1]; P. acnes strain V21B-3) [µg/mL] | MIC ([1]; P. acnes strain V21B-4) [µg/mL] | MIC ([1]; P. acnes strain V21B-5) [µg/mL] | MIC ([1]; P. acnes strain V21B-6) [µg/mL] | MIC ([1]; P. acnes strain V21B-7) [µg/mL] | MIC ([1]; P. acnes strain V21B-8) [µg/mL] | other results
CC[C@H]1OC(=O)[C@H](C)[C@@H](O[C@H]2C[C@@](C)(OC)[C@@H](O)[C@H](C)O2)[C@H](C)[C@@H](O[C@@H]2O[C@H](C)C[C@H](N(C)C)[C@H]2O)[C@](C)(O)C[C@@H](C)C(=O)[C@H](C)[C@@H](O)[C@]1(C)O [Erythromycin, erythromycin] | 50 to 200 (≈ 68.1 to 273 µM) | 50 to 200 (≈ 68.1 to 273 µM) | 100 to 200 (≈ 136 to 273 µM) | 100 to 200 (≈ 136 to 273 µM) | 100 to 200 (≈ 136 to 273 µM) | 50 to 200 (≈ 68.1 to 273 µM) | 50 to 200 (≈ 68.1 to 273 µM) | 100 to 200 (≈ 136 to 273 µM) | 100 to 200 (≈ 136 to 273 µM) | 100 to 200 (≈ 136 to 273 µM) | 100 to 200 (≈ 136 to 273 µM) | 100 to 200 (≈ 136 to 273 µM) | > 200 | > 200 | > 200 | 200 (≈ 273 µM) | > 200 | > 200 | > 200 | > 200 | increase of average MIC (P. acnes): 100 fold; MIC (P. acnes isolates; [7]): 100 to 200 µg/mL (≈ 136 to 273 µM); MIC (P. acnes isolates; [8]): 100 to 200 µg/mL (≈ 136 to 273 µM); MIC (P. acnes isolates; [9]): 100 to 200 µg/mL (≈ 136 to 273 µM); MIC (P. acnes isolates; [10]): 100 to 200 µg/mL (≈ 136 to 273 µM); MIC (P. acnes isolates; [11]): 100 to 200 µg/mL (≈ 136 to 273 µM); MIC (P. acnes isolates; [12]): > 200 µg/mL; MIC (P. acnes isolates; isolate V21B3, phylotype IB, type I, 23S rRNA A2058G): > 200 µg/mL; MIC (P. acnes isolates; [13]): > 200 µg/mL; MIC (P. acnes isolates; [14]): > 200 µg/mL; MIC (P. acnes isolates; [15]): > 200 µg/mL; MIC (P. acnes isolates; [16]): > 200 µg/mL; MIC ([1]; P. acnes strain V21A-3): 100 to 200 µg/mL (≈ 136 to 273 µM); MIC ([1]; P. acnes strain V21A-4): 100 to 200 µg/mL (≈ 136 to 273 µM); MIC ([1]; P. acnes strain V21A-10): 100 to 200 µg/mL (≈ 136 to 273 µM)
CC1CCc2c(N3CCC(O)CC3)c(F)cc3c(=O)c(C(=O)O)cn1c23 (centres unmarked) [Nadifloxacin, nadifloxacin] | – | – | – | – | – | < 0.13 | 0.3 (≈ 0.832 µM) | < 0.13 | 0.3 (≈ 0.832 µM) | – | < 0.13 | 0.3 (≈ 0.832 µM) | 0.5 (≈ 1.39 µM) | 0.5 (≈ 1.39 µM) | 0.5 (≈ 1.39 µM) | 0.5 (≈ 1.39 µM) | 0.5 (≈ 1.39 µM) | 0.5 (≈ 1.39 µM) | 0.5 (≈ 1.39 µM) | 0.5 (≈ 1.39 µM) | MIC ([1]; P. acnes strain V21A-4): 0.3 µg/mL (≈ 0.832 µM); MIC ([1]; P. acnes strain V21A-10): 0.3 µg/mL (≈ 0.832 µM); susceptibility of the strains as indicated by MIC values [1]: susceptible
N[C@@H]1CCCCN(c2c(F)cc3c(=O)c(C(=O)O)cn(C4CC4)c3c2Cl)C1 [Besifloxacin, besifloxacin] | – | – | – | – | – | – | – | – | – | 0.13 (≈ 0.33 µM) | – | – | 0.5 (≈ 1.27 µM) | 0.25 (≈ 0.635 µM) | 0.25 (≈ 0.635 µM) | 0.25 (≈ 0.635 µM) | 0.5 (≈ 1.27 µM) | 0.25 (≈ 0.635 µM) | 0.25 (≈ 0.635 µM) | 0.25 (≈ 0.635 µM) | susceptibility of the strains as indicated by MIC values [1]: susceptible
C[C@H]1COc2c(N3CCN(C)CC3)c(F)cc3c(=O)c(C(=O)O)cn1c23 [Levofloxacin, levofloxacin] | – | – | – | – | – | < 0.13 | – | < 0.13 | – | – | < 0.13 | – | 0.5 (≈ 1.38 µM) | 0.3 (≈ 0.83 µM) | 0.5 (≈ 1.38 µM) | 0.5 (≈ 1.38 µM) | 0.5 (≈ 1.38 µM) | 0.5 (≈ 1.38 µM) | 0.3 (≈ 0.83 µM) | 0.5 (≈ 1.38 µM) | –
CCC[C@@H]1C[C@@H](C(=O)N[C@@H]([C@H]2O[C@H](SC)[C@H](O)[C@@H](O)[C@H]2O)[C@H](C)Cl)N(C)C1 [Clindamycin, clindamycin] | 1 to 8 (≈ 2.35 to 18.8 µM) | 8 to 64 (≈ 18.8 to 151 µM) | 8 to 32 (≈ 18.8 to 75.3 µM) | 16 to 64 (≈ 37.6 to 151 µM) | 1 (≈ 2.35 µM) | 1 to 8 (≈ 2.35 to 18.8 µM) | 8 to 64 (≈ 18.8 to 151 µM) | 1 (≈ 2.35 µM) | 1 to 2 (≈ 2.35 to 4.71 µM) | 0.5 to 2 (≈ 1.18 to 4.71 µM) | 1 to 2 (≈ 2.35 to 4.71 µM) | 16 to 32 (≈ 37.6 to 75.3 µM) | 64 (≈ 151 µM) | 16 to 64 (≈ 37.6 to 151 µM) | 64 (≈ 151 µM) | 32 to 64 (≈ 75.3 to 151 µM) | 1 to 4 (≈ 2.35 to 9.41 µM) | 16 to 64 (≈ 37.6 to 151 µM) | 16 to 64 (≈ 37.6 to 151 µM) | 16 to 64 (≈ 37.6 to 151 µM) | MIC (P. acnes isolates; [7]): 1 to 2 µg/mL (≈ 2.35 to 4.71 µM); MIC (P. acnes isolates; [8]): 0.5 to 2 µg/mL (≈ 1.18 to 4.71 µM); MIC (P. acnes isolates; [9]): 1 to 2 µg/mL (≈ 2.35 to 4.71 µM); MIC (P. acnes isolates; [10]): 16 to 32 µg/mL (≈ 37.6 to 75.3 µM); MIC (P. acnes isolates; [11]): 16 to 64 µg/mL (≈ 37.6 to 151 µM); MIC (P. acnes isolates; [12]): 16 to 64 µg/mL (≈ 37.6 to 151 µM); MIC (P. acnes isolates; [13]): 32 to 64 µg/mL (≈ 75.3 to 151 µM); MIC (P. acnes isolates; [14]): 16 to 64 µg/mL (≈ 37.6 to 151 µM); MIC (P. acnes isolates; [15]): 16 to 64 µg/mL (≈ 37.6 to 151 µM); MIC (P. acnes isolates; [16]): 16 to 64 µg/mL (≈ 37.6 to 151 µM); MIC ([1]; P. acnes strain V21A-3): 8 to 32 µg/mL (≈ 18.8 to 75.3 µM)
